Data: US20200231638A1, “STABILIZED ANTI-MICROBIAL PEPTIDES” (priority 2015, published 2020)
Bridge positions count the residues as written; N and C are the ends. Square brackets hold non-standard residues; d marks the D form. Peptide text beside a SMILES is read from it. R8 = C=CCCCCCC[C@@](C)(N)C(=O)O; S5 = C=CCCC[C@](C)(N)C(=O)O; Nle = CCCC[C@H](N)C(=O)O

Key:
[1] = system: S. aureus; assay type: cell-based, Staphylococcus aureus
Summary of the method: (§1)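 Microdilution MIC test in polyanion-depleted MHB, with a final inoculum of 5×10^5 CFU/ml and 20-24 h incubation at 37° C.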

[2] = system: P. aeruginosa; assay type: cell-based, Pseudomonas aeruginosa
Summary of the method: as §1

[3] = system: E. coli; assay type: cell-based, Escherichia coli
Summary of the method: as §1

[4] = system: B. cereus; assay type: cell-based, Bacillus cereus
Summary of the method: as §1

[5] = system: human red blood cells; assay type: cell-based; conditions: red cells of human, 1 h, 25
Summary of the method: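 Hemolysis expressed as absorbance of released hemoglobin (570 nm) normalized between untreated and 1% Triton-X100 controls, with MHC taken as peptide concentration giving under 1% release. Peptide dilutions were exposed for 1 h at 37° C to a 1% (v/v) suspension of washed human red cells in PBS.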

Compound | MIC S. aureus [1] | MIC P. aeruginosa [2] | MIC E. coli [3] | MIC B. cereus [4] | % Hemolysis at 25 μg/ml [5]
CC(C)C[C@H](NC(=O)[C@H](Cc1ccc(O)cc1)NC(=O)[C@H](Cc1c[nH]cn1)NC(=O)[C@@H](NC(=O)[C@H](CC(C)C)NC(=O)[C@]1(C)CCCC=CCCC[C@](C)(NC(=O)[C@H](Cc2c[nH]cn2)NC(=O)[C@H](CCCCN)NC(=O)CNC(=O)[C@@H](NC(=O)[C@H](Cc2c[nH]cn2)NC(=O)[C@H](C)NC(=O)[C@H](CCCCN)NC(=O)[C@H](CCCCN)NC(=O)[C@H](CCCCN)NC(=O)[C@]2(C)CCCC=CCCC[C@](C)(NC(=O)CN)C(=O)NCC(=O)N[C@@H](CO)C(=O)N[C@@H](Cc3ccccc3)C(=O)N2)C(C)C)C(=O)NCC(=O)N[C@@H](CCCCN)C(=O)N[C@@H](C)C(=O)N1)[C@@H](C)O)C(N)=O [Pleu(i + 4)1, 15(A9K)] (H-G[S5]GSF[S5]KKKAHVGKH[S5]GKA[S5]LTHYL-NH2; staple 2-6, 16-20; N-terminus assumed) | 3.1 µg/mL | 1.6 µg/mL | 1.6 µg/mL | 3.1 µg/mL | 16.3%
CCCC[C@H](NC(=O)[C@]1(C)CCCC=CCCC[C@](C)(NC(=O)[C@H](C)NC(=O)[C@H](CCCCN)NC(=O)CNC(=O)[C@H](Cc2ccccc2)NC(=O)[C@H](CCCCN)NC(=O)[C@H](CCCCN)NC(=O)[C@H](C)NC(=O)[C@H](CO)NC(=O)[C@H](Cc2c[nH]cn2)NC(=O)[C@H](CC(C)C)NC(=O)[C@H](Cc2ccccc2)NC(=O)[C@H](CCCCN)NC(=O)CNC(=O)[C@@H](NC(=O)CN)[C@@H](C)CC)C(=O)N[C@@H](C(C)C)C(=O)N[C@@H](CCC(=O)O)C(=O)N[C@@H](CCC(=O)O)C(=O)N1)C(=O)N[C@@H](CC(N)=O)C(=O)N[C@@H](CO)C(N)=O [Mag(i + 4)15(G18E), GIGKFLHSAKKFGKAXVEEXBNS] (H-GIGKFLHSAKKFGKA[S5]VEE[S5][Nle]NS-NH2; staple 16-20) | 12.5 µg/mL | 12.5 µg/mL | 3.1 µg/mL | 6.2 µg/mL | 4.8%
CCCC[C@H](NC(=O)[C@]1(C)CCCC=CCCC[C@](C)(NC(=O)[C@H](C)NC(=O)[C@H](CCCCN)NC(=O)CNC(=O)[C@H](Cc2ccccc2)NC(=O)[C@H](CCCCN)NC(=O)[C@H](CCCCN)NC(=O)[C@H](C)NC(=O)[C@H](CO)NC(=O)[C@H](Cc2c[nH]cn2)NC(=O)[C@H](CC(C)C)NC(=O)[C@H](Cc2ccccc2)NC(=O)[C@H](CCCCN)NC(=O)CNC(=O)[C@@H](NC(=O)CN)[C@@H](C)CC)C(=O)N[C@@H](C(C)C)C(=O)NCC(=O)N[C@@H](CCC(=O)O)C(=O)N1)C(=O)N[C@@H](CC(N)=O)C(=O)N[C@@H](CO)C(N)=O [Mag(i + 4)15] (H-GIGKFLHSAKKFGKA[S5]VGE[S5][Nle]NS-NH2; staple 16-20) | 12.5 µg/mL | 6.2 µg/mL | 1.6 µg/mL | 6.2 µg/mL | 11.9%
CCCC[C@H](NC(=O)[C@]1(C)CCCC=CCCC[C@](C)(NC(=O)[C@H](C)NC(=O)[C@H](CCCCN)NC(=O)CNC(=O)[C@H](Cc2ccccc2)NC(=O)[C@H](CCCCN)NC(=O)[C@H](CCC(=O)O)NC(=O)[C@H](C)NC(=O)[C@H](CO)NC(=O)[C@H](Cc2c[nH]cn2)NC(=O)[C@H](CC(C)C)NC(=O)[C@H](Cc2ccccc2)NC(=O)[C@H](CCCCN)NC(=O)CNC(=O)[C@@H](NC(=O)CN)[C@@H](C)CC)C(=O)N[C@@H](C(C)C)C(=O)NCC(=O)N[C@@H](CCC(=O)O)C(=O)N1)C(=O)N[C@@H](CC(N)=O)C(=O)N[C@@H](CO)C(N)=O [Mag(i + 4)15(K10E), GIGKFLHSAEKFGKAXVGEXBNS] (H-GIGKFLHSAEKFGKA[S5]VGE[S5][Nle]NS-NH2; staple 16-20) | >50 µg/mL | >50 µg/mL | 6.2 µg/mL | >50 µg/mL | 2.4%
CC[C@H](C)[C@H](NC(=O)CN)C(=O)NCC(=O)N[C@@H](CCCCN)C(=O)N[C@@H](Cc1ccccc1)C(=O)N[C@@H](CC(C)C)C(=O)N[C@@H](Cc1c[nH]cn1)C(=O)N[C@@H](CO)C(=O)N[C@@H](C)C(=O)N[C@@H](CCCCN)C(=O)N[C@@H](CCCCN)C(=O)N[C@@H](Cc1ccccc1)C(=O)NCC(=O)N[C@@H](CCCCN)C(=O)N[C@@H](C)C(=O)N[C@@]1(C)CCCC=CCCC[C@@](C)(C(=O)N[C@@H](CCCCN)C(=O)N[C@@H](CC(N)=O)C(=O)N[C@@H](CO)C(N)=O)NC(=O)[C@H](CCC(=O)O)NC(=O)CNC(=O)[C@H](C(C)C)NC1=O [Mag(i + 4)15(B21K), GIGKFLHSAKKFGKAXVGEXKNS] (H-GIGKFLHSAKKFGKA[S5]VGE[S5]KNS-NH2; staple 16-20) | >50 µg/mL | 6.2 µg/mL | 1.6 µg/mL | 25 µg/mL | 3.7%

The next lines start with results.

MIC S. aureus [1] | MIC P. aeruginosa [2] | MIC E. coli [3] | MIC B. cereus [4] | Compound | % Hemolysis at 25 μg/ml [5]
6.2 µg/mL | 12.5 µg/mL | 3.1 µg/mL | 6.2 µg/mL | CCCC[C@H](NC(=O)[C@@H](NC(=O)[C@H](CCC(=O)O)NC(=O)CNC(=O)[C@@H](NC(=O)[C@H](Cc1ccccc1)NC(=O)[C@]1(C)CCCC=CCCC[C@](C)(NC(=O)[C@H](CCCCN)NC(=O)[C@H](C)NC(=O)[C@H](CO)NC(=O)[C@H](Cc2c[nH]cn2)NC(=O)[C@H](CC(C)C)NC(=O)[C@H](Cc2ccccc2)NC(=O)[C@H](CCCCN)NC(=O)CNC(=O)[C@@H](NC(=O)CN)[C@@H](C)CC)C(=O)N[C@@H](Cc2ccccc2)C(=O)NCC(=O)N[C@@H](CCCCN)C(=O)N1)C(C)C)[C@@H](C)CC)C(=O)N[C@@H](CC(N)=O)C(=O)N[C@@H](CO)C(N)=O [Mag(i + 4)10] (H-GIGKFLHSAK[S5]FGK[S5]FVGEI[Nle]NS-NH2; staple 11-15) | 23.6%
12.5 µg/mL | 6.2 µg/mL | 1.6 µg/mL | 3.1 µg/mL | CC[C@H](C)[C@H](NC(=O)CN)C(=O)NCC(=O)N[C@@H](CCCCN)C(=O)N[C@@H](Cc1ccccc1)C(=O)N[C@@H](CC(C)C)C(=O)N[C@@H](Cc1c[nH]cn1)C(=O)N[C@@H](CO)C(=O)N[C@@H](C)C(=O)N[C@@H](CCCCN)C(=O)N[C@@H](CCCCN)C(=O)N[C@@H](Cc1ccccc1)C(=O)NCC(=O)N[C@]1(C)CCCCCCC=CCCC[C@@](C)(C(=O)N[C@@H](CC(N)=O)C(=O)N[C@@H](CO)C(N)=O)NC(=O)[C@H]([C@@H](C)CC)NC(=O)[C@H](CCC(=O)O)NC(=O)CNC(=O)[C@H](C(C)C)NC(=O)[C@H](Cc2ccccc2)NC(=O)[C@H](C)NC1=O [Mag(i + 7)13] (H-GIGKFLHSAKKFG[R8]AFVGEI[S5]NS-NH2; staple 14-21 (inferred); N-terminus and C-terminus assumed) | 63.6%
12.5 µg/mL | 12.5 µg/mL | 3.1 µg/mL | 12.5 µg/mL | CCCC[C@H](NC(=O)[C@@H](NC(=O)[C@H](CCC(=O)O)NC(=O)CNC(=O)[C@@H](NC(=O)[C@H](Cc1ccccc1)NC(=O)[C@H](C)NC(=O)[C@H](CCCCN)NC(=O)CNC(=O)[C@H](Cc1ccccc1)NC(=O)[C@H](CCCCN)NC(=O)[C@H](CCCCN)NC(=O)[C@H](C)NC(=O)[C@H](CO)NC(=O)[C@]1(C)CCCC=CCCC[C@](C)(NC(=O)[C@@H](NC(=O)CN)[C@@H](C)CC)C(=O)N[C@@H](CCCCN)C(=O)N[C@@H](Cc2ccccc2)C(=O)N[C@@H](CC(C)C)C(=O)N1)C(C)C)[C@@H](C)CC)C(=O)N[C@@H](CC(N)=O)C(=O)N[C@@H](CO)C(N)=O [Mag(i + 4)2] (H-GI[S5]KFL[S5]SAKKFGKAFVGEI[Nle]NS-NH2; staple 3-7) | 19.6%
6.2 µg/mL | 3.1 µg/mL | 1.6 µg/mL | 3.1 µg/mL | CCCC[C@H](NC(=O)[C@@H](NC(=O)[C@H](CCC(=O)O)NC(=O)CNC(=O)[C@@H](NC(=O)[C@]1(C)CCCC=CCCCCCC[C@@](C)(NC(=O)[C@H](CO)NC(=O)[C@H](Cc2c[nH]cn2)NC(=O)[C@H](CC(C)C)NC(=O)[C@H](Cc2ccccc2)NC(=O)[C@H](CCCCN)NC(=O)CNC(=O)[C@@H](NC(=O)CN)[C@@H](C)CC)C(=O)N[C@@H](CCCCN)C(=O)N[C@@H](CCCCN)C(=O)N[C@@H](Cc2ccccc2)C(=O)NCC(=O)N[C@@H](CCCCN)C(=O)N[C@@H](C)C(=O)N1)C(C)C)[C@@H](C)CC)C(=O)N[C@@H](CC(N)=O)C(=O)N[C@@H](CO)C(N)=O [Mag(i + 7)8] (H-GIGKFLHS[R8]KKFGKA[S5]VGEI[Nle]NS-NH2; staple 9-16 (inferred); N-terminus and C-terminus assumed) | 85.4%
3.1 µg/mL | 3.1 µg/mL | 1.6 µg/mL | 3.1 µg/mL | CCCC[C@H](NC(=O)[C@@H](NC(=O)[C@]1(C)CCCC=CCCC[C@](C)(NC(=O)[C@H](CCCCN)NC(=O)CNC(=O)[C@H](Cc2ccccc2)NC(=O)[C@H](CCCCN)NC(=O)[C@H](CCCCN)NC(=O)[C@H](C)NC(=O)[C@H](CO)NC(=O)[C@H](Cc2c[nH]cn2)NC(=O)[C@H](CC(C)C)NC(=O)[C@H](Cc2ccccc2)NC(=O)[C@H](CCCCN)NC(=O)CNC(=O)[C@@H](NC(=O)CN)[C@@H](C)CC)C(=O)N[C@@H](Cc2ccccc2)C(=O)N[C@@H](C(C)C)C(=O)NCC(=O)N1)[C@@H](C)CC)C(=O)N[C@@H](CC(N)=O)C(=O)N[C@@H](CO)C(N)=O [Mag(i + 4)14] (H-GIGKFLHSAKKFGK[S5]FVG[S5]I[Nle]NS-NH2; staple 15-19) | 92.1%
